From patent publication US20170370929A1, “POSITIVE ALLOSTERIC MODULATORS OF THE DELTA-OPIOID RECEPTOR” (BRISTOL-MYERS SQUIBB COMPANY, priority 2014, published 2017)
pEC50: −log10 of the molar value.

Experiments:
[1] = target: δ receptor (Homo sapiens, UniProt P41143); test: PathHunter β-arrestin recruitment assay in CHO-OPRD1 cells; format: cell-based
[2] = target: μ receptor (Homo sapiens, UniProt P35372); test: PathHunter β-arrestin recruitment assay in CHO-OPRM1 cells; format: cell-based; details: PAM mode, up to the highest concentration tested (10 μM)
Chain of μ receptor (P35372 whole entry): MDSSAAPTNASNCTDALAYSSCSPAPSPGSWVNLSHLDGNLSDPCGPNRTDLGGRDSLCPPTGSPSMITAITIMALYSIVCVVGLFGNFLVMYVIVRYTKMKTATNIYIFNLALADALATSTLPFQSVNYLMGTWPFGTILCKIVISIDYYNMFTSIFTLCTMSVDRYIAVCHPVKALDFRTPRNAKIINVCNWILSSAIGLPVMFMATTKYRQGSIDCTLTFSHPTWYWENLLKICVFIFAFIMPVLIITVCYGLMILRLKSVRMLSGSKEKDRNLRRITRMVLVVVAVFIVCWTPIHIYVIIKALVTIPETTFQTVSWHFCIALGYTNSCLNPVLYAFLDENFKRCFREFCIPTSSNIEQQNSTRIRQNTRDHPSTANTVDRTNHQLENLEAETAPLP

Chain of δ receptor (P41143 whole entry): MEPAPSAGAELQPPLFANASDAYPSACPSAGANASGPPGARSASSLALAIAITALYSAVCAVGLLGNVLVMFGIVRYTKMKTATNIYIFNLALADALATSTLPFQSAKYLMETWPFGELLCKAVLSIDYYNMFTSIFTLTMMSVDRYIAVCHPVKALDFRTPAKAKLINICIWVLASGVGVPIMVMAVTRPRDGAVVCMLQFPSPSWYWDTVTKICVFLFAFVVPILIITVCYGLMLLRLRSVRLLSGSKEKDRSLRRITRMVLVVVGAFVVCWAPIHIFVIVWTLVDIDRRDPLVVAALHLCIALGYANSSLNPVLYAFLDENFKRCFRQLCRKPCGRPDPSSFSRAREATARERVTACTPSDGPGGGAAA

| Compound | pEC50 ([1]; PAM mode, in the presence of an EC20 of leu-enkephalin, CHO-OPRD1 cells) | selectivity compared with PAM activity at the μ receptor ([1]; β-arrestin recruitment assay, δ versus μ receptor PAM activity) | PAM activity at the μ receptor [2] | PAM activity at the δ receptor (in words) ([1]; PAM mode, β-arrestin recruitment) |
| --- | --- | --- | --- | --- |
| CC1(C)CC(=O)C2=C(C1)OC1=C(C(=O)CC(C)(C)C1)C2c1ccc(OCc2ccccc2)cc1 [Analog 1] | 6.70 | 30 fold | – | – |
| CC1(C)CC(=O)C2=C(C1)OC1=C(C(=O)CC(C)(C)C1)C2c1ccc(OCc2ccccc2Br)cc1 [Analog 10, 9-(4-((2-bromobenzyl)oxy)phenyl)-3,3,6,6-tetramethyl-3,4,5,6,7,9-hexahydro-1H-xanthene-1,8(2H)-dione] | – | – | no observable PAM activity | equipotent PAM activity to 2 |
